Data published in the NIST ThermoML archive (doi:10.1016/j.fluid.2004.10.025).
± gives the expanded uncertainty stated by the source.

Conditions: Liquid

ClC(Cl)C(Cl)Cl [1,1,2,2-tetrachloroethane]
vapor or sublimation pressure (283.15 K): 0.263 ± 0.021 kPa | vapor or sublimation pressure (288.15 K): 0.373 ± 0.021 kPa | vapor or sublimation pressure (293.15 K): 0.521 ± 0.022 kPa | vapor or sublimation pressure (298.15 K): 0.711 ± 0.023 kPa | vapor or sublimation pressure (303.15 K): 0.98 ± 0.025 kPa | vapor or sublimation pressure (308.15 K): 1.289 ± 0.028 kPa | vapor or sublimation pressure (313.15 K): 1.701 ± 0.028 kPa | vapor or sublimation pressure (318.15 K): 2.236 ± 0.029 kPa | vapor or sublimation pressure (323.15 K): 2.86 ± 0.03 kPa

ClC(Cl)(Cl)Cl [tetrachloromethane]
vapor or sublimation pressure (283.15 K): 7.514 ± 0.042 kPa | vapor or sublimation pressure (288.15 K): 9.601 ± 0.047 kPa | vapor or sublimation pressure (293.15 K): 12.14 ± 0.054 kPa | vapor or sublimation pressure (298.15 K): 15.22 ± 0.064 kPa | vapor or sublimation pressure (303.15 K): 18.98 ± 0.076 kPa | vapor or sublimation pressure (308.15 K): 23.36 ± 0.09 kPa | vapor or sublimation pressure (313.15 K): 28.53 ± 0.11 kPa | vapor or sublimation pressure (318.15 K): 34.59 ± 0.13 kPa | vapor or sublimation pressure (323.15 K): 41.68 ± 0.15 kPa

ClC(Cl)=C(Cl)Cl [tetrachloroethene]
vapor or sublimation pressure (283.15 K): 1.023 ± 0.026 kPa | vapor or sublimation pressure (288.15 K): 1.4 ± 0.027 kPa | vapor or sublimation pressure (293.15 K): 1.861 ± 0.028 kPa | vapor or sublimation pressure (298.15 K): 2.462 ± 0.029 kPa | vapor or sublimation pressure (303.15 K): 3.205 ± 0.031 kPa | vapor or sublimation pressure (308.15 K): 4.117 ± 0.033 kPa | vapor or sublimation pressure (313.15 K): 5.253 ± 0.036 kPa | vapor or sublimation pressure (318.15 K): 6.621 ± 0.039 kPa | vapor or sublimation pressure (323.15 K): 8.286 ± 0.043 kPa
